# Measured values reported in patent publication US12077555B2, “STAT degraders and uses thereof” (Kymera Therapeutics, Inc., priority 2019, dated 2024).
# Biological target: STAT3 (Homo sapiens, UniProt P40763)
# Test: Quantitation of STAT3 degradation in A549 cells by Western blot
# Format: cell-based
# Set-up: expressed in transfected cells; host or cells: A549
# Settings: read-out: A549 DC50, 24 hours, tested up to 30 μM or 10 μM
# Summary of the method: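 A549 cells treated 24 h at 37° C with compound at 30, 10, 3, 1, 0.3 μM or DMSO; RIPA lysates analysed by SDS-PAGE/Western blot for total STAT3, β-actin as loading control, LI-COR fluorescence read-out. DC50 derived by sigmoidal fit of dose-dependent degradation.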
# Sequence of STAT3 (P40763 whole entry): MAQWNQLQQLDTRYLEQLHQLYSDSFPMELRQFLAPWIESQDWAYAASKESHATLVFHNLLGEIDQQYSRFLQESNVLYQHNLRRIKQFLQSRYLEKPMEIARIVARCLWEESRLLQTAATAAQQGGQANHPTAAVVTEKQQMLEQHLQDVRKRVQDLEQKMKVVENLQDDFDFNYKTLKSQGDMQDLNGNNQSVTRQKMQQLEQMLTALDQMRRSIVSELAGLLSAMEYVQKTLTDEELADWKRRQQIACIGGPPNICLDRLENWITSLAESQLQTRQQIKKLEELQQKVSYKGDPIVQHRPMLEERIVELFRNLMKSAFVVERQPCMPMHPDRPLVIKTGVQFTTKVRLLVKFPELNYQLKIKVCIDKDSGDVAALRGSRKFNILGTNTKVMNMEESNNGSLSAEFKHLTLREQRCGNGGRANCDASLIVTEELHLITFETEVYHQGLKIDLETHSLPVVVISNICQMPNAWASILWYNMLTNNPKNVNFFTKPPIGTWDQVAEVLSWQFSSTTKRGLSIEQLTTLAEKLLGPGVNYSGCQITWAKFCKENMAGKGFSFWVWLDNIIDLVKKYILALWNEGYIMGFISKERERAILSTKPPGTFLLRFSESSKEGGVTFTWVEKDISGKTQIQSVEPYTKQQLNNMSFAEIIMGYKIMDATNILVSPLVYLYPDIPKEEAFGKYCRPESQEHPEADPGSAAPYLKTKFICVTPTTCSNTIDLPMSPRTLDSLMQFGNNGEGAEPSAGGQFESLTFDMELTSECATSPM
smiles,measurement,value
C[C@@H](OCc1ccc(CCCCc2ccc3c(c2)n(C)c(=O)n3C2CCC(=O)NC2=O)cc1)[C@H](CCC(N)=O)NC(=O)[C@@H]1Cc2cccc3c2N1C(=O)[C@@H](NC(=O)c1cc2cc(C(=O)P(=O)(O)O)ccc2[nH]1)CC3 (some centres unmarked) [Compound I-84],DC50,> 30 µM
Cc1ncsc1-c1ccc(CNC(=O)[C@@H]2C[C@@H](O)CN2C(=O)[C@@H](NC(=O)CCCC#Cc2ccc(CO[C@H](C)[C@H](CCC(N)=O)NC(=O)[C@@H]3Cc4cccc5c4N3C(=O)[C@@H](NC(=O)c3cc4cc(C(=O)P(=O)(O)O)ccc4[nH]3)CC5)cc2)C(C)(C)C)cc1 [Compound I-86],DC50,< 30 µM
"Cc1ncsc1-c1ccc(CNC(=O)[C@@H]2C[C@@H](O)CN2C(=O)[C@@H](NC(=O)CCc2ccc3cc(CO[C@H](C)[C@H](CCC(N)=O)NC(=O)[C@@H]4Cc5cccc6c5N4C(=O)[C@@H](NC(=O)c4cc5cc(C(=O)P(=O)(O)O)ccc5[nH]4)CC6)ccc3c2)C(C)(C)C)cc1 [Compound I-87, diammonium 2-[[(2S,11S)-2-[[(3S,4R)-1-carbamoyl-4-[[6-(2-[[(2S)-1-[(2S,4R)-4-hydroxy-2-([[4-(4-methyl-1,3-thiazol-5-yl)phenyl]methyl]carbamoyl)pyrrolidin-1-yl]-3,3-dimethyl-1-oxobutan-2-yl]carbamoyl]ethyl)naphthalen-2-yl]methoxy]pentan-3-yl]carbamoyl]-12-oxo-1-azatricyclo[6.4.1.0^[4,13]]trideca-4(13),5,7-trien-11-yl]carbamoyl]-1H-indole-5-carbonylphosphonate]",DC50,< 30 µM
"Cn1c(=O)n(C2CCC(=O)NC2=O)c2cccc(CCCCC(=O)N3CC[C@H]4CC[C@@H](C(=O)N[C@@H](CCC(N)=O)C(=O)NC(c5ccccc5)c5ccccc5)N4C(=O)[C@@H](NC(=O)c4cc5cc(C(=O)P(=O)(O)O)ccc5[nH]4)C3)c21 (stereo partly drawn) [Compound I-88, 2-[[(5S,8S,10aR)-8-[[(1S)-3-carbamoyl-1-(diphenylmethylcarbamoyl)propyl]carbamoyl]-3-[5-[1-(2,6-dioxopiperidin-3-yl)-3-methyl-2-oxo-1,3-benzodiazol-4-yl]pentanoyl]-6-oxo-octahydropyrrolo[1,2-a][1,5]diazocin-5-yl]carbamoyl]-1H-indole-5-carbonylphosphonic acid]",DC50,> 30 µM
"C/C(=C\C(=O)N[C@H]1CN(C(=O)CCCCCC#Cc2cccc3c2CN(C2CCC(=O)NC2=O)C3=O)CC[C@H]2CC[C@@H](C(=O)N[C@@H](CCC(N)=O)C(=O)NC(c3ccccc3)c3ccccc3)N2C1=O)c1ccc(CP(=O)(O)O)cc1 (stereo partly drawn) [Compound I-89, diammonium [4-[(1E)-1-[[(5S,8S,10aR)-8[[(1S)-3-carbamoyl-1-(diphenylmethylcarbamoyl)propyl]carbamoyl]-3-[8-[2-(2,6-dioxopiperidin-3-yl)-1-oxo-3H-isoindol-4-yl]oct-7-ynoyl]-6-oxo-octahydropyrrolo[1,2-a][1,5]diazocin-5-yl]carbamoyl]prop-1-en-2-yl]phenyl]methylphosphonate]",DC50,< 30 µM
"Cc1ncsc1-c1ccc(C2(NC(=O)[C@@H]3C[C@@H](O)CN3C(=O)[C@@H](NC(=O)CCCCc3ccc(CO[C@H](C)[C@H](CCC(N)=O)NC(=O)[C@@H]4Cc5cccc6c5N4C(=O)[C@@H](NC(=O)c4cc5cc(C(=O)P(=O)(O)O)ccc5[nH]4)CC6)cc3)C(C)(C)C)CC2)cc1 [Compound I-90, 2-[[(2S,11S)-2-[[(3S,4R)-1-carbamoyl-4-[[4-(4-[[(2S)-1-[(2S,4R)-4-hydroxy-2-([1-[4-(4-methyl-1,3-thiazol-5-yl)phenyl]cyclopropyl]carbamoyl)pyrrolidin-1-yl]-3,3-dimethyl-1-oxobutan-2-yl]carbamoyl]butyl)phenyl]methoxy]pentan-3-yl]carbamoyl]-12-oxo-1-azatricyclo[6.4.1.0^[4,13]]trideca-4(13),5,7-trien-11-yl]carbamoyl]-1H-indole-5-carbonylphosphonic acid]",DC50,< 30 µM
Cn1c(=O)n(C2CCC(=O)NC2=O)c2cccc(CCCCCCCC(=O)N3CC[C@H]4CC[C@@H](C(=O)N[C@@H](CCC(N)=O)C(=O)NC(c5ccccc5)c5ccccc5)N4C(=O)[C@@H](NC(=O)c4cc5cc(C(=O)P(=O)(O)O)ccc5[nH]4)C3)c21 (some centres unmarked) [Compound I-91],DC50,< 30 µM
C/C(=C\C(=O)N[C@H]1CCc2cccc3c2N(C1=O)[C@H](C(=O)N[C@@H](CCC(N)=O)[C@@H](C)OCc1ccc(CCCCC(=O)N[C@H](C(=O)N2C[C@H](O)C[C@H]2C(=O)NC2(c4ccc(-c5scnc5C)cc4)CC2)C(C)(C)C)cc1)C3)c1ccc(C(F)(F)P(=O)(O)O)cc1 [Compound I-92],DC50,> 30 µM
"Cc1ncsc1-c1ccc(CNC(=O)[C@@H]2C[C@@H](O)CN2C(=O)[C@@H](NC(=O)CCCCc2cccc(CO[C@H](C)[C@H](CCC(N)=O)NC(=O)[C@@H]3Cc4cccc5c4N3C(=O)[C@@H](NC(=O)c3cc4cc(C(=O)P(=O)(O)O)ccc4[nH]3)CC5)c2)C(C)(C)C)cc1 [Compound I-95, diammonium 2-[[(2S,11S)-2-[[(3S,4R)-1-carbamoyl-4-[[3-(4-[[(2S)-1-[(2S,4R)-4-hydroxy-2-([[4-(4-methyl-1,3-thiazol-5-yl)phenyl]methyl]carbamoyl)pyrrolidin-1-yl]-3,3-dimethyl-1-oxobutan-2-yl]carbamoyl]butyl)phenyl]methoxy]pentan-3-yl]carbamoyl]-12-oxo-1-azatricyclo[6.4.1.0^[4,13]]trideca-4(13),5,7-trien-11-yl]carbamoyl]-1H-indole-5-carbonylphosphonate]",DC50,< 30 µM
"Cc1ncsc1-c1ccc(CNC(=O)[C@@H]2C[C@@H](O)CN2C(=O)[C@@H](NC(=O)CCC#Cc2ccc(CO[C@H](C)[C@H](CCC(N)=O)NC(=O)[C@@H]3Cc4cccc5c4N3C(=O)[C@@H](NC(=O)c3cc4cc(C(=O)P(=O)(O)O)ccc4[nH]3)CC5)cc2)C(C)(C)C)cc1 [Compound I-96, diammonium 2-[[(2S,11S)-2-[[(3S,4R)-1-carbamoyl-4-[[4-(4-[[(2S)-1-[(2S,4R)-4-hydroxy-2-([[4-(4-methyl-1,3-thiazol-5-yl)phenyl]methyl]carbamoyl)pyrrolidin-1-yl]-3,3-dimethyl-1-oxobutan-2-yl]carbamoyl]but-1-yn-1-yl)phenyl]methoxy]pentan-3-yl]carbamoyl]-12-oxo-1-azatricyclo[6.4.1.0^[4,13]]trideca-4(13),5,7-trien-11-yl]carbamoyl]-1H-indole-5-carbonylphosphonate]",DC50,> 30 µM
"Cn1c(=O)n(C2CCC(=O)NC2=O)c2ccc(CCCCCCCC(=O)N3CC[C@H]4CC[C@@H](C(=O)N[C@@H](CCC(N)=O)C(=O)NC(c5ccccc5)c5ccccc5)N4C(=O)[C@@H](NC(=O)c4cc5cc(C(=O)P(=O)(O)O)ccc5[nH]4)C3)cc21 (stereo partly drawn) [Compound I-97, 2-[[(5S,8S,10aR)-8-[[(1S)-3-carbamoyl-1-(diphenylmethylcarbamoyl)propyl]carbamoyl]-3-[8-[1-(2,6-dioxopiperidin-3-yl)-3-methyl-2-oxo-1,3-benzodiazol-5-yl]octanoyl]-6-oxo-octahydropyrrolo[1,2-a][1,5]diazocin-5-yl]carbamoyl]-1H-indole-5-carbonylphosphonic acid]",DC50,< 30 µM
